Laboratory results published in ChEMBL document CHEMBL4422615, “Novel non-xanthine antagonist of the A2B adenosine receptor: From HTS hit to lead structure” (Eur J Med Chem, 2019).
pIC50: −log10 of the molar value. The source made the active and inactive calls. The rule behind the calls is not given here.

What was measured:
[1] = Fraction unbound in rat plasma by equilibrium dialysis method; assay type: ADME, cell-free
[2] = molecular target: T1, Cytochrome P450 1A2 (Homo sapiens, UniProt P05177); test: Inhibition of CYP1A2 in human liver microsomes using phenacetin as substrate after 15 mins in presence of NADPH by LC-MS/MS analysis; assay type: ADME
T1 sequence (P05177 whole entry): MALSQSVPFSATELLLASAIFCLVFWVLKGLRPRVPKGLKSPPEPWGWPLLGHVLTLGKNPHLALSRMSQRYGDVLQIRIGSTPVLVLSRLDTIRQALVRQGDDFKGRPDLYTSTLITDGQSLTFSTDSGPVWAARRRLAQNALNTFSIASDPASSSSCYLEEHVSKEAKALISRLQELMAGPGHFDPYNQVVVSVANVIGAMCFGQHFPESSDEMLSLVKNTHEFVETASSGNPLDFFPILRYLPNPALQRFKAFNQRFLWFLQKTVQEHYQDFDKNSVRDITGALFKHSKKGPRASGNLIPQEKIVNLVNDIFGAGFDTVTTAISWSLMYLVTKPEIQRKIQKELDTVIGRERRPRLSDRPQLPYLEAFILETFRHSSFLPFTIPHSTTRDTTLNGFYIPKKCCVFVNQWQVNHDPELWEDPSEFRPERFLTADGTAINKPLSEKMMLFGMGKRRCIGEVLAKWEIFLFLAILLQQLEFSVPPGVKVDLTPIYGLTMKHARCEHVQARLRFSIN

[3] = molecular target: Cytochrome P450 2D6 (Homo sapiens, UniProt P10635); test: Inhibition of CYP2D6 in human liver microsomes using dextromethorphan as substrate after 15 mins in presence of NADPH by LC-MS/MS analysis; assay type: ADME
Chain of Cytochrome P450 2D6 (P10635 whole entry): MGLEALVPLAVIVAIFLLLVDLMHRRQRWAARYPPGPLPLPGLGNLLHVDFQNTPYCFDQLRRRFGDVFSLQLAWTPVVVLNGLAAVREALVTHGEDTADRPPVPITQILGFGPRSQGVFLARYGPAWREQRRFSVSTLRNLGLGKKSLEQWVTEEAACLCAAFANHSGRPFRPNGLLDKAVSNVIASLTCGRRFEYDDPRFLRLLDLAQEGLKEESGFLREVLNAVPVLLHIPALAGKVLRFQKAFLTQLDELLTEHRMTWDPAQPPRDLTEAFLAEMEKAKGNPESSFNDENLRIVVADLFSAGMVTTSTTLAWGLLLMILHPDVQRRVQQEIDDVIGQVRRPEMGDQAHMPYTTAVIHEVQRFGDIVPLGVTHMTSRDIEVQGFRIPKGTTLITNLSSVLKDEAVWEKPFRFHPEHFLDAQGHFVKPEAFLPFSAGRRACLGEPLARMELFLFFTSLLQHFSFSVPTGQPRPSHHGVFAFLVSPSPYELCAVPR

[4] = test system: Mus musculus; test: Antifibrotic activity in FITC-induced C57BL/6J mouse pulmonary fibrosis model assessed as reduction in total number of cells in BALF at 100 to 500 mg/kg, bid administered via gavage pretreated for 45 mins before FITC addition until 72 hrs after FITC application; assay type: functional, organism-based
[5] = molecular target: T2, PXR (Homo sapiens, UniProt O75469); test: Activation of PXR in human HepG2 cells assessed as induction of CYP3A4 expression at 2 x 10^-9 to 50 x 10^-6 mol/L by luciferase reporter gene assay relative to control; assay type: ADME, cell-based
T2 sequence (O75469 whole entry): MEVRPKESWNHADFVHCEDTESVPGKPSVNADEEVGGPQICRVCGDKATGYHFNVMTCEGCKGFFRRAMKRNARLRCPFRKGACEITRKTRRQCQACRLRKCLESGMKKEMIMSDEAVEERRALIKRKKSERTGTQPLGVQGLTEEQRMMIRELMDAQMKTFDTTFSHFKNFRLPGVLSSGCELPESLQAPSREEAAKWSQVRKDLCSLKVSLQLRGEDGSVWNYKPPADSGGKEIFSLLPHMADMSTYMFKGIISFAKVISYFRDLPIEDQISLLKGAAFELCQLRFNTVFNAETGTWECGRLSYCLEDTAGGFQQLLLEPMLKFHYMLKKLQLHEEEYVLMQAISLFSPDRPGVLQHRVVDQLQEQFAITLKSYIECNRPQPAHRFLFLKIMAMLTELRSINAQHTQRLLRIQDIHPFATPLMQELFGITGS

[6] = test system: Mus musculus; test: Antifibrotic activity in FITC-induced C57BL/6J mouse pulmonary fibrosis model assessed as reduction in IL-6 level in lung tissue homogenate at 100 to 500 mg/kg, bid administered via gavage pretreated for 45 mins before FITC addition until 72 hrs after FITC application by ELISA; assay type: functional, organism-based
[7] = Half life in mouse at 0.3 mg/kg, iv administered as bolus dose by HPLC-MS/MS analysis; assay type: ADME, organism-based; conditions: in vivo
[8] = Dose normalized Cmax in mouse at 1 mg/kg, iv administered as bolus dose by HPLC-MS/MS analysis; assay type: ADME, organism-based; conditions: in vivo
[9] = Dose normalized Cmax in rat at 1 mg/kg, po for 15 mins by HPLC-MS/MS analysis; assay type: ADME, organism-based; conditions: in vivo, 0.25 h
[10] = Oral bioavailability in dog at 1 mg/kg for 15 mins by HPLC-MS/MS analysis; assay type: ADME, organism-based, Canis lupus familiaris; conditions: in vivo
[11] = Dose normalized Cmax in dog at 1 mg/kg, po for 15 mins by HPLC-MS/MS analysis; assay type: ADME, organism-based, Canis lupus familiaris; conditions: in vivo, 0.25 h
[12] = MRT in dog at 1 mg/kg, po for 15 mins by HPLC-MS/MS analysis; assay type: ADME, organism-based, Canis lupus familiaris; conditions: in vivo
[13] = molecular target: T3, Adenosine receptor A2b (Homo sapiens, UniProt P29275); test: Antagonist activity at recombinant human A2B adenosine receptor expressed in CHO cells after 3 to 4 hrs by luciferase reporter gene assay; assay type: cell-based
T3 sequence (P29275 whole entry): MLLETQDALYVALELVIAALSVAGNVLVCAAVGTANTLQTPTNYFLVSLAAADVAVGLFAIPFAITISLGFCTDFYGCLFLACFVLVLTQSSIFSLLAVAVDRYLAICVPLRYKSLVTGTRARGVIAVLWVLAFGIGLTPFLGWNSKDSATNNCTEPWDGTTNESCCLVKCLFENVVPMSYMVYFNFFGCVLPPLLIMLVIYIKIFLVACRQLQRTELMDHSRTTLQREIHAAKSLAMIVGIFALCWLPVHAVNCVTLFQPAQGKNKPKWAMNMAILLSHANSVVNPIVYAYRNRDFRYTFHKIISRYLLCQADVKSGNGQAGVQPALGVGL

[14] = molecular target: Adenosine receptor A2a (Mus musculus, UniProt Q60613); test: Antagonist activity at recombinant mouse A2A adenosine receptor expressed in CHO cells after 3 to 4 hrs by luciferase reporter gene assay; assay type: cell-based
Chain of Adenosine receptor A2a (Q60613 whole entry): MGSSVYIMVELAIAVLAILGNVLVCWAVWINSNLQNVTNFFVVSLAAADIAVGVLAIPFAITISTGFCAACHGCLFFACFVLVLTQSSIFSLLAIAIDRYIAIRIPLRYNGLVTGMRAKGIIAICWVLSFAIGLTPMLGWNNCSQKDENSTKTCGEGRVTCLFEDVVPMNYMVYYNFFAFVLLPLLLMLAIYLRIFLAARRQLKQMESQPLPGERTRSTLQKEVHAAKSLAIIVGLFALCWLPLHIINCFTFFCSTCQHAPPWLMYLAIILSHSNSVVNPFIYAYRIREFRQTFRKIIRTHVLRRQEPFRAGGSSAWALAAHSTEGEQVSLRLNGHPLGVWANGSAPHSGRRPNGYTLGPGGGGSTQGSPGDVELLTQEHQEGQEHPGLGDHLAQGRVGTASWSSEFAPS

[15] = molecular target: T4, Adenosine receptor A3 (Mus musculus, UniProt Q61618); test: Antagonist activity at recombinant mouse A3 adenosine receptor expressed in CHO cells after 3 to 4 hrs by luciferase reporter gene assay; assay type: cell-based
T4 sequence (Q61618 whole entry): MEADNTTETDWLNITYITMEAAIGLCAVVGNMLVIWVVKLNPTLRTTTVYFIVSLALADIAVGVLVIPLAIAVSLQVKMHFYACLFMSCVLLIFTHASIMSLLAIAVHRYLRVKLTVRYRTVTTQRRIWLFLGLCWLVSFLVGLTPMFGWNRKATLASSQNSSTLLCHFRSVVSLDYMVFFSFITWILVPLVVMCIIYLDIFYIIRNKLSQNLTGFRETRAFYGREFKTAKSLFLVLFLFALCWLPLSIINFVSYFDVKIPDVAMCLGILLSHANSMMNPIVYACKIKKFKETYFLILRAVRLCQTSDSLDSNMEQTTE

fraction unbound [1]: 0.7
pIC50 [2]: < 4.70
pIC50 [3]: < 4.70
Emax [5]: 16%
half-life [7]: 1.2 h
Cmax/dose [8]: 1.2 kg/L
Cmax/dose [9]: 0.33 kg/L
bioavailability [10]: 79%
Cmax/dose [11]: 0.61 kg/L
MRT [12]: 4.4 h
pIC50 [13]: 7.18
pIC50 [14]: 6.33
pIC50 [15]: < 5.17
Compound: CCn1c(=O)c2c(C)c(C(=O)N3CCC(O)CC3)sc2n(CCC(F)(F)F)c1=O
Activity [4]: Active
Activity [6]: Active
